According to PMC4237514, “Novel amino-β-lactam derivatives as potent cholesterol absorption inhibitors” (European Journal of Medicinal Chemistry, 2014):
Values joined by “and” are separate entries in the source; they are usually repeats but may differ in a detail not shown here. Equal values may be shown once.

What was measured:
human NPC1L1 = target: T1, human NPC1L1 (Homo sapiens, UniProt Q9UHC9); experiment: In vitro [3H]cholesterol uptake assay in hNPC1L1/MDCKII cells; format: cell-based; details: for IC50: 1 h, read-out: IC50, cholesterol uptake inhibition; for inhibition at 120 µM: MDCK-II, maximum at 120 μM, compared to untreated cells
T1 construct: expressed in transfected cells
T1 sequence (Q9UHC9 22-1359): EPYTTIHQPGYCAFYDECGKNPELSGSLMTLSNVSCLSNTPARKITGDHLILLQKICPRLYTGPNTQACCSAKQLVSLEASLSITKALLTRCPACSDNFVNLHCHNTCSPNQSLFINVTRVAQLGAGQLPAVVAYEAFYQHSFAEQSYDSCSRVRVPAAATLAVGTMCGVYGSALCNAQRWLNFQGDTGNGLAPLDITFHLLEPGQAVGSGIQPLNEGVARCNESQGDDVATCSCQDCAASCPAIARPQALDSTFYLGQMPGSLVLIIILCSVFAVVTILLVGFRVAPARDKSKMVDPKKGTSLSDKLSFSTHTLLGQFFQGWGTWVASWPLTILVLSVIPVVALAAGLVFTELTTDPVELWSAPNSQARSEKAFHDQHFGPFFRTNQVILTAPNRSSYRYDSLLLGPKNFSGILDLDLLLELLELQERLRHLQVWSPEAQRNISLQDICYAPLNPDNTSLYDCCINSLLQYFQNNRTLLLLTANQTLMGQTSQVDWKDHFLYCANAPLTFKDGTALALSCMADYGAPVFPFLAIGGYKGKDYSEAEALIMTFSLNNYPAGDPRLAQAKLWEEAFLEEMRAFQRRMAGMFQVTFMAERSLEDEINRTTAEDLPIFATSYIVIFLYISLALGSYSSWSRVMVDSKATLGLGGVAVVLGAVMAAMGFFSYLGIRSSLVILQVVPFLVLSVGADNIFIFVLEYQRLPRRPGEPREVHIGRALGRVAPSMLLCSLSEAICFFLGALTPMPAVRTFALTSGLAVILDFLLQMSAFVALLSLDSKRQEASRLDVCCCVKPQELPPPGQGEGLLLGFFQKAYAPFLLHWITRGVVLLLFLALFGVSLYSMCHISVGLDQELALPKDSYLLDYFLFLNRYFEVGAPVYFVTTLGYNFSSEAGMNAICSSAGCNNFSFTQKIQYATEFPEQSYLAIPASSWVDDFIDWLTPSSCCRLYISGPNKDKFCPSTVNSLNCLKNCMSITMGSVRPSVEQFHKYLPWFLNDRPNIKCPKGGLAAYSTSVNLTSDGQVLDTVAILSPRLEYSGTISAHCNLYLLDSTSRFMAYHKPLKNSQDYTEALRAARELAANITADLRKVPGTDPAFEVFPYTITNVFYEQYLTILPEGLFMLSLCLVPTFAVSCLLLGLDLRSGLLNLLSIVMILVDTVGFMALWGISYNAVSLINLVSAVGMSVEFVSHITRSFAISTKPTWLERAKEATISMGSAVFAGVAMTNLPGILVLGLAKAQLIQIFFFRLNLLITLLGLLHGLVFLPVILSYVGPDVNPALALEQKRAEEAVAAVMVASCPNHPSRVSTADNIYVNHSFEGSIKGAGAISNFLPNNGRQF
Description: Medium A contained DMEM plus 100 units/mL penicillin and 100 μg/mL streptomycin supplemented with 5% lipoprotein-deficient serum (density > 1.21 g/mL, prepared from FCS by ultracentrifugation). Cholesterol Replenishing Medium (Medium B) was prepared according to the modified method reported by Field et al.. In brief, 0.25 mM oleic acid, 50 μM free cholesterol, 10 μM compactin, 50 μM mevalonate, 5 mM Na-taurocholate (Sigma–Aldrich, Germany), and [^3H]cholesterol (0.18 μCi/mL medium, [1,2–3H(N)] cholesterol, 1 mCi/mL (ARC Inc., USA)) in Medium A were mixed and sonicated. Following the micellar formation, compounds 1, 5, 6, 5/6 (70:30), and 6/5 (85:15) (73 mM stock solution in DMSO) were added to Medium B and vortexed to obtain the final concentrations (10, 30, 60, 90, 120, 150, 200 μM).
MDCKII wildtype and hNPC1L1/MDCKII cells were seeded in 24-well plates at a density of 5 × 10^5 cells/mL medium (500 μL medium/well) in Medium A 24 h before the treatment. Cells were washed once with PBS and incubated in Medium B (500 μL medium/well) containing micelles and tested compounds in indicated concentrations for 1 h. Following the incubation, the medium was removed and cells were washed three times with ice-cold 0.2% free fatty acid-free BSA. Cells were lysed and radioactivity in the lysate (100 μL) was determined by liquid scintillation counting. Protein concentrations of the lysates were determined with the DC Protein Assay (Bio-Rad, USA). The results were calculated as cpm/mg protein and expressed as percentage of inhibition compared to untreated cells. Each concentration was tested in duplicate in three independent experiments.

cholesterol absorption = experiment: In vivo acute cholesterol absorption; set-up: species or system C57BL/6 mice; details: mice; for In vivo inhibition (%) of cholesterol absorption, Duodenum / In vivo inhibition (%) of cholesterol absorption, Ileum / In vivo inhibition (%) of cholesterol absorption, Jejunum / In vivo inhibition (%) of cholesterol absorption, Liver / In vivo inhibition (%) of cholesterol absorption, Plasma: [3H]cholesterol reduction relative to vehicle
Description: In vivo, we first determined the consequences of ezetimibe 1 and amino alcohols 5 and 6 on cholesterol absorption. We therefore gavaged mice with 2 μCi [^3H]cholesterol and 10 mg/kg/day of each compound or vehicle, and radioactivity was measured in plasma, liver, and three equal parts of the intestine (duodenum, jejunum, ileum). Percentage of [^3H]cholesterol reduction is presented relative to vehicle, respectively. […] We therefore increased the dose to 20 mg/kg/day and determined inhibition of cholesterol absorption. The inhibition in duodenum and jejunum was similar to the lower dose, whereas in ileum it raised from 21% to 41% (Table 3). Decreased cholesterol absorption of 5 in the small intestine compared to ezetimibe 1 might be explained by the fact that 2-azetidinones are moderate acyl-coenzyme A:cholesterol acyltransferase inhibitors and their level of activity is highly structure-dependent. It might therefore be speculated that acyl-coenzyme A:cholesterol acyltransferase activity of amino alcohols 5 and 6 and their diastereoisomeric mixtures is altered compared to ezetimibe 1.
Male C57BL/6 mice aged 25–28 weeks were maintained under a 12 h light/12 h dark cycle in a temperature-controlled environment with free access to chow diet (Ssniff, Germany) and water. For 2 days, mice (n = 3–5) were fasted for 4 h and gavaged with corn oil (100 μl) (vehicle) containing ezetimibe 1 (10 mg/kg/day) or compounds 5, 6, and 5/6 (70:30) (10 or 20 mg/kg/day). On day 2, 90 min post vehicle or compound treatment, mice were gavaged with corn oil (200 μl) containing [^3H]cholesterol (2 μCi) ([1,2–3H(N)] cholesterol, 1 mCi/mL, ARC Inc., St. Louis, USA). Plasma, liver, and small intestines were collected 4 h post-gavage. Cholesterol uptake and absorption were determined as previously described.

[1] = gavage 10 mg/kg/day for 2 days, 10 mg/kg/day

Row | Structure (SMILES) | IC50 (human NPC1L1) [µM] | inhibition at 120 µM (human NPC1L1) [%] | In vivo inhibition (%) of cholesterol absorption, Duodenum (cholesterol absorption; gavage 20 mg/kg/day for 2 days) [%] | In vivo inhibition (%) of cholesterol absorption, Ileum (cholesterol absorption; gavage 20 mg/kg/day for 2 days) [%] | In vivo inhibition (%) of cholesterol absorption, Jejunum (cholesterol absorption; gavage 20 mg/kg/day for 2 days) [%] | In vivo inhibition (%) of cholesterol absorption, Liver (cholesterol absorption; gavage 20 mg/kg/day for 2 days) [%] | In vivo inhibition (%) of cholesterol absorption, Plasma (cholesterol absorption; gavage 20 mg/kg/day for 2 days) [%] | effect on cholesterol uptake (human NPC1L1; Figure S3) | In vivo inhibition (%) of cholesterol absorption, Duodenum (cholesterol absorption; gavage 10 mg/kg/day for 2 days) [%] | In vivo inhibition (%) of cholesterol absorption, Ileum (cholesterol absorption; gavage 10 mg/kg/day for 2 days) [%] | In vivo inhibition (%) of cholesterol absorption, Jejunum (cholesterol absorption; gavage 10 mg/kg/day for 2 days) [%] | In vivo inhibition (%) of cholesterol absorption, Liver (cholesterol absorption; gavage 10 mg/kg/day for 2 days) [%] | In vivo inhibition (%) of cholesterol absorption, Plasma (cholesterol absorption; gavage 10 mg/kg/day for 2 days) [%] | reduction of radioactivity in the small intestine (cholesterol absorption; 10 mg/kg/day, small intestine overall, not statistically significant) [%] | In vivo inhibition (%) of cholesterol absorption, Ileum (cholesterol absorption; [1]) | In vivo inhibition (%) of cholesterol absorption, Liver (cholesterol absorption; [1]) | In vivo inhibition (%) of cholesterol absorption, Plasma (cholesterol absorption; [1]) | In vivo inhibition (%) of cholesterol absorption, Ileum (cholesterol absorption; gavage 20 mg/kg/day for 2 days, 20 mg/kg/day) | inhibition of [3H]cholesterol in the ileum (cholesterol absorption; span over the 10 and 20 mg/kg/day groups)
1 | O=C1[C@H](NCC(O)c2ccc(F)cc2)[C@@H](c2ccc(O)cc2)N1c1ccc(F)cc1 (mixture of isomers) [5/6 (70:30), (3R,4R)-3-[(2R/S)-2-(4-fluorophenyl)-2-hydroxyethylamino]-1-(4-fluorophenyl)-4-(4-hydroxyphenyl)azetidin-2-one] | 60 | 50 to 55 | 49 ± 7 | 41 ± 21 | 48 ± 9 | 70 ± 5 | 64 ± 7 |  |  |  |  |  |  |  |  |  |  |  | 
2 | O=C1[C@H](CC[C@H](O)c2ccc(F)cc2)[C@@H](c2ccc(O)cc2)N1c1ccc(F)cc1 [Compound 1, ezetimibe, reference compound] |  |  |  |  |  |  |  | inhibited cholesterol uptake | 65 ± 1 | 47 ± 3 | 61 ± 2 | 52 ± 3 | 60 ± 6 |  |  |  |  |  | 
3 | O=C1[C@H](NC[C@H](O)c2ccc(F)cc2)[C@@H](c2ccc(O)cc2)N1c1ccc(F)cc1 [Compound 5] | 72 | 50 to 55 | 18 ± 14 |  | 19 ± 16 | 33 ± 6 | 52 ± 7 |  | 23 ± 18 |  | 23 ± 13 |  |  | ~22 | 21% and 21 ± 20% | 44% and 44 ± 6 % | 50% and 50 ± 8 % | 41% and 41 ± 12 % | 
4 | O=C1[C@H](NC[C@@H](O)c2ccc(F)cc2)[C@@H](c2ccc(O)cc2)N1c1ccc(F)cc1 [Compound 6, (3R,4R)-3-[(2S)-2-(4-fluorophenyl)-2-hydroxyethylamino]-1-(4-fluorophenyl)-4-(4-hydroxyphenyl)azetidin-2-one] | 80 | 50 to 55 | 35 ± 9 | 60 ± 9 | 26 ± 8 | 49 ± 10 | 38 ± 11 |  | 43 ± 11 | 58 ± 8 | 37 ± 11 |  |  |  |  | 47% and 47 ± 0 % | 32% and 32 ± 5 % |  | 58–60%
